Laboratory results published in patent publication US8192962B2, “Processes for detecting toxic substances” (Daikin Industries, Ltd., priority 2001, dated 2012).

Tested on: Metabolism protein genes
Experiment: DNA chip mRNA expression in yeast, metabolism protein genes (Table 7)
Format: cell-based, Saccharomyces cerevisiae S288C
Summary of the method: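 Cells were grown at 25° C. in YPD, treated at logarithmic phase for 2 h with a chemical at a concentration inhibiting growth but not causing death, and compared with untreated cultures. Labeled cDNA was hybridized to a DNA chip carrying all yeast genes, and the expression ratio was taken from scanner fluorescence.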

Cl[C@H]1[C@H](Cl)[C@@H](Cl)[C@@H](Cl)[C@H](Cl)[C@H]1Cl [(7), γ-hexachlorocyclohexane]
The level of expressed mRNA in the presence of chemical substance/The level of expressed mRNA in the absence of chemical substance (yeast gene YKL035W): 0.6 | level of expressed mRNA in the presence/in the absence of chemical substance (yeast gene YKL060C): 1.2 | The level of expressed mRNA in the presence of chemical substance/The level of expressed mRNA in the absence of chemical substance (yeast gene YKL091C): 1.9 | The level of expressed mRNA in the presence of chemical substance/The level of expressed mRNA in the absence of chemical substance (yeast gene YKL104C): 2.3 | level of expressed mRNA in the presence/in the absence of chemical substance (yeast gene YKL148C): 0.6 | The level of expressed mRNA in the presence of chemical substance/The level of expressed mRNA in the absence of chemical substance (yeast gene YKL152C): 1.5 | level of expressed mRNA in the presence/in the absence of chemical substance (yeast gene YKL157W): 1.9 | The level of expressed mRNA in the presence of chemical substance/The level of expressed mRNA in the absence of chemical substance (yeast gene YKL213C): 1.0 | The level of expressed mRNA in the presence of chemical substance/The level of expressed mRNA in the absence of chemical substance (yeast gene YKL215C): 1.1 | level of expressed mRNA in the presence/in the absence of chemical substance (yeast gene YKR034W): 0.7 | The level of expressed mRNA in the presence of chemical substance/The level of expressed mRNA in the absence of chemical substance (yeast gene YKR039W): 1.0 | The level of expressed mRNA in the presence of chemical substance/The level of expressed mRNA in the absence of chemical substance (yeast gene YLL058W): 1.5 | level of expressed mRNA in the presence/in the absence of chemical substance (yeast gene YLR006C): 1.1 | level of expressed mRNA in the presence/in the absence of chemical substance (yeast gene YLR044C): 1.3 | level of expressed mRNA in the presence/in the absence of chemical substance (yeast gene YLR056W): 0.8 | level of expressed mRNA in the presence/in the absence of chemical substance (yeast gene YLR058C): 0.5 | level of expressed mRNA in the presence/in the absence of chemical substance (yeast gene YLR081W): 0.7 | level of expressed mRNA in the presence/in the absence of chemical substance (yeast gene YLR089C): 1.6 | The level of expressed mRNA in the presence of chemical substance/The level of expressed mRNA in the absence of chemical substance (yeast gene YLR180W): 0.6 | The level of expressed mRNA in the presence of chemical substance/The level of expressed mRNA in the absence of chemical substance (yeast gene YLR273C): 1.2 | level of expressed mRNA in the presence/in the absence of chemical substance (yeast gene YLR284C): 0.8 | The level of expressed mRNA in the presence of chemical substance/The level of expressed mRNA in the absence of chemical substance (yeast gene YLR299W): 0.8 | The level of expressed mRNA in the presence of chemical substance/The level of expressed mRNA in the absence of chemical substance (yeast gene YLR300W): 0.5 | level of expressed mRNA in the presence/in the absence of chemical substance (yeast gene YLR304C): 0.6 | The level of expressed mRNA in the presence of chemical substance/The level of expressed mRNA in the absence of chemical substance (yeast gene YLR307W): 1.5 | The level of expressed mRNA in the presence of chemical substance/The level of expressed mRNA in the absence of chemical substance (yeast gene YLR348C): 0.9 | level of expressed mRNA in the presence/in the absence of chemical substance (yeast gene YLR354C): 1.1 | level of expressed mRNA in the presence/in the absence of chemical substance (yeast gene YLR372W): 0.2 | level of expressed mRNA in the presence/in the absence of chemical substance (yeast gene YML022W): 0.6 | The level of expressed mRNA in the presence of chemical substance/The level of expressed mRNA in the absence of chemical substance (yeast gene YML054C): 1.2 | The level of expressed mRNA in the presence of chemical substance/The level of expressed mRNA in the absence of chemical substance (yeast gene YML070W): 3.1 | The level of expressed mRNA in the presence of chemical substance/The level of expressed mRNA in the absence of chemical substance (yeast gene YML100W): 2.2 | The level of expressed mRNA in the presence of chemical substance/The level of expressed mRNA in the absence of chemical substance (yeast gene YMR008C): 0.9 | level of expressed mRNA in the presence/in the absence of chemical substance (yeast gene YMR011W): 0.8 | level of expressed mRNA in the presence/in the absence of chemical substance (yeast gene YMR015C): 0.4 | The level of expressed mRNA in the presence of chemical substance/The level of expressed mRNA in the absence of chemical substance (yeast gene YMR020W): 2.7 | level of expressed mRNA in the presence/in the absence of chemical substance (yeast gene YMR083W): 1.7 | The level of expressed mRNA in the presence of chemical substance/The level of expressed mRNA in the absence of chemical substance (yeast gene YMR105C): 2.8 | The level of expressed mRNA in the presence of chemical substance/The level of expressed mRNA in the absence of chemical substance (yeast gene YMR189W): 0.8 | level of expressed mRNA in the presence/in the absence of chemical substance (yeast gene YMR205C): 0.9 | level of expressed mRNA in the presence/in the absence of chemical substance (yeast gene YMR261C): 1.3 | The level of expressed mRNA in the presence of chemical substance/The level of expressed mRNA in the absence of chemical substance (yeast gene YMR271C): 3.4 | The level of expressed mRNA in the presence of chemical substance/The level of expressed mRNA in the absence of chemical substance (yeast gene YMR296C): 0.6 | level of expressed mRNA in the presence/in the absence of chemical substance (yeast gene YMR323W): 1.1 | The level of expressed mRNA in the presence of chemical substance/The level of expressed mRNA in the absence of chemical substance (yeast gene YNL012W): 2.0 | level of expressed mRNA in the presence/in the absence of chemical substance (yeast gene YNL025C): 1.2 | The level of expressed mRNA in the presence of chemical substance/The level of expressed mRNA in the absence of chemical substance (yeast gene YNL045W): 1.8 | The level of expressed mRNA in the presence of chemical substance/The level of expressed mRNA in the absence of chemical substance (yeast gene YNL104C): 0.6 | The level of expressed mRNA in the presence of chemical substance/The level of expressed mRNA in the absence of chemical substance (yeast gene YNL106C): 0.9 | The level of expressed mRNA in the presence of chemical substance/The level of expressed mRNA in the absence of chemical substance (yeast gene YNL169C): 0.7 | level of expressed mRNA in the presence/in the absence of chemical substance (yeast gene YNL192W): 1.0 | The level of expressed mRNA in the presence of chemical substance/The level of expressed mRNA in the absence of chemical substance (yeast gene YNL231C): 2.5 | The level of expressed mRNA in the presence of chemical substance/The level of expressed mRNA in the absence of chemical substance (yeast gene YNL322C): 0.9 | The level of expressed mRNA in the presence of chemical substance/The level of expressed mRNA in the absence of chemical substance (yeast gene YNL331C): 1.9 | The level of expressed mRNA in the presence of chemical substance/The level of expressed mRNA in the absence of chemical substance (yeast gene YNL332W): 2.1 | The level of expressed mRNA in the presence of chemical substance/The level of expressed mRNA in the absence of chemical substance (yeast gene YNR019W): 0.8 | The level of expressed mRNA in the presence of chemical substance/The level of expressed mRNA in the absence of chemical substance (yeast gene YNR033W): 1.2 | The level of expressed mRNA in the presence of chemical substance/The level of expressed mRNA in the absence of chemical substance (yeast gene YNR059W): 1.6 | The level of expressed mRNA in the presence of chemical substance/The level of expressed mRNA in the absence of chemical substance (yeast gene YOL058W): 0.4 | level of expressed mRNA in the presence/in the absence of chemical substance (yeast gene YOL086C): 1.9 | level of expressed mRNA in the presence/in the absence of chemical substance (yeast gene YOL108C): 1.1 | level of expressed mRNA in the presence/in the absence of chemical substance (yeast gene YOL116W): 1.5 | The level of expressed mRNA in the presence of chemical substance/The level of expressed mRNA in the absence of chemical substance (yeast gene YOL126C): 1.4 | The level of expressed mRNA in the presence of chemical substance/The level of expressed mRNA in the absence of chemical substance (yeast gene YOL153C): 3.3 | level of expressed mRNA in the presence/in the absence of chemical substance (yeast gene YOL156W): 1.0 | The level of expressed mRNA in the presence of chemical substance/The level of expressed mRNA in the absence of chemical substance (yeast gene YOL165C): 1.4 | level of expressed mRNA in the presence/in the absence of chemical substance (yeast gene YOR002W): 1.0 | level of expressed mRNA in the presence/in the absence of chemical substance (yeast gene YOR085W): 0.6 | The level of expressed mRNA in the presence of chemical substance/The level of expressed mRNA in the absence of chemical substance (yeast gene YOR099W): 1.0 | level of expressed mRNA in the presence/in the absence of chemical substance (yeast gene YOR103C): 1.2 | level of expressed mRNA in the presence/in the absence of chemical substance (yeast gene YOR108W): 1.2 | level of expressed mRNA in the presence/in the absence of chemical substance (yeast gene YOR128C): 0.7 | The level of expressed mRNA in the presence of chemical substance/The level of expressed mRNA in the absence of chemical substance (yeast gene YOR130C): 1.3 | level of expressed mRNA in the presence/in the absence of chemical substance (yeast gene YOR142W): 1.0 | level of expressed mRNA in the presence/in the absence of chemical substance (yeast gene YOR176W): 0.5 | level of expressed mRNA in the presence/in the absence of chemical substance (yeast gene YOR178C): 0.9 | level of expressed mRNA in the presence/in the absence of chemical substance (yeast gene YOR251C): 1.0 | The level of expressed mRNA in the presence of chemical substance/The level of expressed mRNA in the absence of chemical substance (yeast gene YOR336W): 1.2 | The level of expressed mRNA in the presence of chemical substance/The level of expressed mRNA in the absence of chemical substance (yeast gene YOR347C): 0.9 | level of expressed mRNA in the presence/in the absence of chemical substance (yeast gene YOR348C): 0.8 | The level of expressed mRNA in the presence of chemical substance/The level of expressed mRNA in the absence of chemical substance (yeast gene YPL017C): 1.4 | level of expressed mRNA in the presence/in the absence of chemical substance (yeast gene YPL028W): 1.3 | level of expressed mRNA in the presence/in the absence of chemical substance (yeast gene YPL057C): 0.6 | level of expressed mRNA in the presence/in the absence of chemical substance (yeast gene YPL135W): 1.2 | level of expressed mRNA in the presence/in the absence of chemical substance (yeast gene YPL148C): 1.0 | The level of expressed mRNA in the presence of chemical substance/The level of expressed mRNA in the absence of chemical substance (yeast gene YPR026W): 1.3 | level of expressed mRNA in the presence/in the absence of chemical substance (yeast gene YPR113W): 1.2 | level of expressed mRNA in the presence/in the absence of chemical substance (yeast gene YPR165W): 1.0 | The level of expressed mRNA in the presence of chemical substance/The level of expressed mRNA in the absence of chemical substance (yeast gene YPR167C): 1.2 | level of expressed mRNA in the presence/in the absence of chemical substance (yeast gene YPR183W): 1.2
